According to PubChem BioAssay (NCI):
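Five compound concentrations were applied to cells in 96-well plates for 48 hours; endpoints were derived by simple linear interpolation of the resulting dose-response curve. Here, GI50 denotes the concentration required for 50% inhibition of growth. The concentration for full growth arrest is given as TGI.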

How the values were obtained:
Test in all cases: inhibition of tumour cell growth, NCI panel, 48 h
MOLT-4 leukemia = test system: MOLT-4 leukemia
OVCAR-8 ovarian = test system: OVCAR-8 ovarian
SK-OV-3 ovarian = test system: SK-OV-3 ovarian
NCI-H460 lung = test system: NCI-H460 lung
RXF 393 renal = test system: RXF 393 renal
U251 CNS = test system: U251 CNS
MDA-MB-435 = test system: MDA-MB-435
NCI-H226 lung = test system: NCI-H226 lung
RPMI-8226 leukemia = test system: RPMI-8226 leukemia
HL-60(TB) leukemia = test system: HL-60(TB) leukemia
SR leukemia = test system: SR leukemia
HOP-62 NSCLC = test system: HOP-62 NSCLC
COLO 205 colon = test system: COLO 205 colon
HS 578T breast = test system: HS 578T breast
TK-10 renal = test system: TK-10 renal
CAKI-1 renal = test system: CAKI-1 renal
OVCAR-3 ovarian = test system: OVCAR-3 ovarian
OVCAR-5 ovarian = test system: OVCAR-5 ovarian
SW-620 colon = test system: SW-620 colon
UACC-62 melanoma = test system: UACC-62 melanoma
HOP-92 NSCLC = test system: HOP-92 NSCLC
HT29 colon = test system: HT29 colon
MDA-MB-468 breast = test system: MDA-MB-468 breast
BT-549 breast = test system: BT-549 breast
CCRF-CEM leukemia = test system: CCRF-CEM leukemia
SF-295 CNS = test system: SF-295 CNS
HCT-116 colon = test system: HCT-116 colon
SK-MEL-5 melanoma = test system: SK-MEL-5 melanoma
T-47D breast = test system: T-47D breast
M14 melanoma = test system: M14 melanoma
SK-MEL-2 melanoma = test system: SK-MEL-2 melanoma
SN12C renal = test system: SN12C renal
PC-3 prostate = test system: PC-3 prostate
NCI/ADR-RES ovarian = test system: NCI/ADR-RES ovarian
LOX IMVI melanoma = test system: LOX IMVI melanoma
786-0 renal = test system: 786-0 renal
NCI-H23 lung = test system: NCI-H23 lung
SF-268 CNS = test system: SF-268 CNS
KM12 colon = test system: KM12 colon
UACC-257 melanoma = test system: UACC-257 melanoma
SNB-19 CNS = test system: SNB-19 CNS
SK-MEL-28 melanoma = test system: SK-MEL-28 melanoma
SNB-75 CNS = test system: SNB-75 CNS
HCC-2998 colon = test system: HCC-2998 colon
HCT-15 colon = test system: HCT-15 colon
OVCAR-4 ovarian = test system: OVCAR-4 ovarian
IGROV1 ovarian = test system: IGROV1 ovarian
MDA-MB-231 breast = test system: MDA-MB-231 breast
UO-31 renal = test system: UO-31 renal
EKVX NSCLC = test system: EKVX NSCLC
ACHN renal = test system: ACHN renal
A498 renal = test system: A498 renal
NCI-H522 lung = test system: NCI-H522 lung
DU-145 prostate = test system: DU-145 prostate
K-562 leukemia = test system: K-562 leukemia
MALME-3M melanoma = test system: MALME-3M melanoma
SF-539 CNS = test system: SF-539 CNS
A549 NSCLC = test system: A549 NSCLC
MCF7 breast = test system: MCF7 breast

Structure (SMILES): O=C(CSc1nnc(-c2ccc3nc(-c4ccc(Cl)cc4)[nH]c3c2)o1)Nc1ccc(Br)cc1
- GI50 (MOLT-4 leukemia): 3.19 µM
- TGI (MOLT-4 leukemia): 15.4 µM
- GI50 (OVCAR-8 ovarian): 3.9 µM
- TGI (OVCAR-8 ovarian): 19.4 µM
- GI50 (SK-OV-3 ovarian): 16.5 µM
- TGI (SK-OV-3 ovarian): 31.7 µM
- GI50 (NCI-H460 lung): 2.39 µM
- TGI (NCI-H460 lung): 5.78 µM
- GI50 (RXF 393 renal): 2.6 µM
- TGI (RXF 393 renal): 8.42 µM
- GI50 (U251 CNS): 2.69 µM
- TGI (U251 CNS): 6.66 µM
- GI50 (MDA-MB-435): 2.9 µM
- TGI (MDA-MB-435): 9.3 µM
- GI50 (NCI-H226 lung): 3.45 µM
- TGI (NCI-H226 lung): 16 µM
- GI50 (RPMI-8226 leukemia): 8.26 µM
- TGI (RPMI-8226 leukemia): 86.3 µM
- GI50 (HL-60(TB) leukemia): 2.91 µM
- TGI (HL-60(TB) leukemia): 15.6 µM
- GI50 (SR leukemia): 9.89 µM
- TGI (SR leukemia): > 100 µM
- GI50 (HOP-62 NSCLC): 5.96 µM
- TGI (HOP-62 NSCLC): 20.2 µM
- GI50 (COLO 205 colon): 12.8 µM
- TGI (COLO 205 colon): 27.5 µM
- GI50 (HS 578T breast): 4.09 µM
- TGI (HS 578T breast): 24.7 µM
- GI50 (TK-10 renal): 20.2 µM
- TGI (TK-10 renal): 36.8 µM
- GI50 (CAKI-1 renal): 3.74 µM
- TGI (CAKI-1 renal): 14.9 µM
- GI50 (OVCAR-3 ovarian): 11.3 µM
- TGI (OVCAR-3 ovarian): 28.2 µM
- GI50 (OVCAR-5 ovarian): 14.2 µM
- TGI (OVCAR-5 ovarian): 29.5 µM
- GI50 (SW-620 colon): 4.99 µM
- TGI (SW-620 colon): 18.5 µM
- GI50 (UACC-62 melanoma): 4.63 µM
- TGI (UACC-62 melanoma): 16.8 µM
- GI50 (HOP-92 NSCLC): 3.55 µM
- TGI (HOP-92 NSCLC): 15.7 µM
- GI50 (HT29 colon): 5.66 µM
- TGI (HT29 colon): 27.3 µM
- GI50 (MDA-MB-468 breast): 5.31 µM
- TGI (MDA-MB-468 breast): 17.6 µM
- GI50 (BT-549 breast): 2.66 µM
- TGI (BT-549 breast): 6.12 µM
- GI50 (CCRF-CEM leukemia): 3.33 µM
- TGI (CCRF-CEM leukemia): 20.4 µM
- GI50 (SF-295 CNS): 6.17 µM
- TGI (SF-295 CNS): 19.2 µM
- GI50 (HCT-116 colon): 2.78 µM
- TGI (HCT-116 colon): 7.81 µM
- GI50 (SK-MEL-5 melanoma): 3.69 µM
- TGI (SK-MEL-5 melanoma): 13.6 µM
- GI50 (T-47D breast): 18.3 µM
- TGI (T-47D breast): 65.8 µM
- GI50 (M14 melanoma): 2.56 µM
- TGI (M14 melanoma): 6.09 µM
- GI50 (SK-MEL-2 melanoma): 4.74 µM
- TGI (SK-MEL-2 melanoma): 18.4 µM
- GI50 (SN12C renal): 2.91 µM
- TGI (SN12C renal): 11.2 µM
- GI50 (PC-3 prostate): 3.28 µM
- TGI (PC-3 prostate): 16.6 µM
- GI50 (NCI/ADR-RES ovarian): 4.31 µM
- TGI (NCI/ADR-RES ovarian): 15.7 µM
- GI50 (LOX IMVI melanoma): 1.63 µM
- TGI (LOX IMVI melanoma): 2.98 µM
- GI50 (786-0 renal): 2.13 µM
- TGI (786-0 renal): 4.76 µM
- GI50 (NCI-H23 lung): 2.4 µM
- TGI (NCI-H23 lung): 6.17 µM
- GI50 (SF-268 CNS): 5.66 µM
- TGI (SF-268 CNS): 22.3 µM
- GI50 (KM12 colon): 10.4 µM
- TGI (KM12 colon): 41.5 µM
- GI50 (UACC-257 melanoma): 5.65 µM
- TGI (UACC-257 melanoma): 20.5 µM
- GI50 (SNB-19 CNS): 4.2 µM
- TGI (SNB-19 CNS): 14.6 µM
- GI50 (SK-MEL-28 melanoma): 5.04 µM
- TGI (SK-MEL-28 melanoma): 17.5 µM
- GI50 (SNB-75 CNS): 2.36 µM
- TGI (SNB-75 CNS): 14.1 µM
- GI50 (HCC-2998 colon): 8.56 µM
- TGI (HCC-2998 colon): 20.9 µM
- GI50 (HCT-15 colon): 4.18 µM
- TGI (HCT-15 colon): 16.3 µM
- GI50 (OVCAR-4 ovarian): 6.65 µM
- TGI (OVCAR-4 ovarian): 26.7 µM
- GI50 (IGROV1 ovarian): 10.6 µM
- TGI (IGROV1 ovarian): 23 µM
- GI50 (MDA-MB-231 breast): 2.37 µM
- TGI (MDA-MB-231 breast): 6.07 µM
- GI50 (UO-31 renal): 11.8 µM
- TGI (UO-31 renal): 24 µM
- GI50 (EKVX NSCLC): 9.52 µM
- TGI (EKVX NSCLC): 21.6 µM
- GI50 (ACHN renal): 3.47 µM
- TGI (ACHN renal): 12.5 µM
- GI50 (A498 renal): 18.8 µM
- TGI (A498 renal): 34.8 µM
- GI50 (NCI-H522 lung): 4.73 µM
- TGI (NCI-H522 lung): 19.8 µM
- GI50 (DU-145 prostate): 5.83 µM
- TGI (DU-145 prostate): 19.1 µM
- GI50 (K-562 leukemia): 3.2 µM
- TGI (K-562 leukemia): 15.1 µM
- GI50 (MALME-3M melanoma): 3.83 µM
- TGI (MALME-3M melanoma): 15.4 µM
- GI50 (SF-539 CNS): 2.86 µM
- TGI (SF-539 CNS): 9.19 µM
- GI50 (A549 NSCLC): 3.89 µM
- TGI (A549 NSCLC): 19.8 µM
- GI50 (MCF7 breast): 3.86 µM
- TGI (MCF7 breast): 17.7 µM
